Assays:
[1] = molecular target: T1, GSPT1 (Homo sapiens, UniProt P15170+Q96SW2); experiment: GSPT1 levels in tumors, PD analysis by western blotting (compound 8); type: in vivo, mice; parameters: from tissue; host or cells: NCI-H1155 subcutaneous xenograft tumours from BALB/c nude mice; conditions: 75 mg/kg and 37 mg/kg, respectively; 24 hr post third dose
Description: For the PD analysis, tumors were harvested 24 hr post third dose and GSPT1 total levels in tumors were determined by western blotting analysis. GADPH levels were measured as control Briefly, 30-50 mg of tumor was placed in 350 μL of RIPA buffer containing 1% Protease Inhibitor Cocktail and 1% Phosphatase Inhibitor Cocktail 2. Tumors were grinded using the Tissuelyser LT at 50 Hz for 5 min. the tissue lysates were kept on ice for 30 min, centrifuged at 12,000 rpm at 4° C. for 10 min and protein concentration measured using the Pierce™ BCA Protein Assay Kit as recommended by the manufacturer. Samples were diluted to the same final concentration (at 4 μg/μL) using RIPA buffer plus 4×LDS Sample Buffer and 10× Sample Reducing Agent and subsequently heat denatured at 100° C. for 10 min. Western blot analysis was performed using 5 μL per slot for each sample, loaded on a NuPAGE® 4-12% Bis-Tris gel, probing for GSPT1 (Sigma-HPA052488; 1/250 dilution) and GAPDH as loading control (CST-5174; 1/2000 dilution).

[2] = tested on: cells with wildtype (WT) cereblon; experiment: Viability in cells with wildtype cereblon; type: cell-based
Source text: X-axis axis represents m concentration of compound 8; y-axis represents viability normalized to DMSO.

[3] = tested on: NSCLC cell lines expressing high levels of N-Myc (NCI-H1155, ABC-1); experiment: Viability of NSCLC cell lines treated with compound 210; type: cell-based, human; conditions: compared to low N-Myc lines EBC-1, NCI-H2023
Description: GSPT1 was degraded by compound 210 after six hours of treatment in high N-Myc NCI-H1155 and ABC-1 cells with a DC50 of 3 nM and 22 nM, respectively (x-axis represents M concentration of compound 210; y-axis represents the viability in %).

[4] = tested on: NSCLC patient derived xenografts; experiment: Patient derived NSCLC xenograft models (PDX), tumor progression free probability; type: in vivo, immunodeficient mice; conditions: high L-Myc or N-Myc expressing PDX models, oral 10 mg/kg daily, progression >800 mm^3
Description: Patient derived NSCLC xenograft models (PDX) were made using immunodeficient mice. 14 PDXs were made for high L-Myc or N-Myc expressing NSCLC samples and 19 PDXs were made for low L-Myc or N-Myc expressing NSCLC samples. Animals were divided into a treatment group that received an oral dose of 10 mg/kg Compound 345 daily and a vehicle-only control group. […] Data from these experiments are shown in FIG. 14A (high L-Myc or high N-Myc expressing) and FIG. 14B (low L-Myc or low N-Myc expressing). Tumor progression free probability was plotted over time, with a threshold of tumor progression set at greater than 800 mm^3.
We used log 2FPKM cutoff of 1.5 and 3.4 for N-Myc and L-Myc expression respectively. PDX tumor fragments (2-3 mm in diameter) were inoculated subcutaneously at the upper right dorsal flank of 6-8 weeks old female BALB7c or NODS/CID nude mice. […] Mice were PO dosed with vehicle or Compound 345 at 10 mg/kg daily and tumor volumes recorded at least twice a week. […] For each mouse, we calculated the first day the tumor volume reached 800 mm3 as the endpoint. […] Kaplan-Meier curves were generated in R (ver 4.0.2, survminer package) and log-rank (Mantel-Cox) test P-values were calculated using R (ver 4.0.2, survival package) to assess the differences in survival curves between the Compound 345-treated and vehicle treated samples. […]

[5] = molecular target: T1, GSPT1; experiment: GSPT1 levels in NCI-H1155 tumors (Compound 345); type: in vivo, mice; parameters: from tissue; host or cells: NCI-H1155 subcutaneous xenograft tumours from BALB/c nude mice; conditions: day 5, 1 mg/kg and 10 mg/kg, strongest effect at 10 mg/kg
Description: (§1) Additionally, plasma concentrations of Compound 345 and levels of GSPT1 and […] (relative to vehicle-only control) were measured in a time-course experiment on day 5 for the animals receiving 1 mg/kg and 10 mg/kg.
(§2) GSPT1 and N-Myc western blotting analyses from NCI-H1155 tumors: The NCI-H1155 model was run as described previously and tumors were harvested following 5 consecutive daily PO doses of Compound 345 at 1.0 and 10 mg/kg. Tumors were lysed in 1× lysis buffer (CST, Cat. No. 9803, Lot No. 0000122383) supplemented with protease (Sigma, Cat. No. P8340) and phosphatase ((Sigma, Cat. No. P5726 and P0044) cocktail inhibitors using TissueLyser II (QIAGEN #85300). Samples were spined at 15,000 rpm in an Eppendorf microfuge for 15 min at 4° C. The protein supernatant was collected in a new 1.5 ml tube and the protein concentrations were determined by the Pierce BCA kit (Thermo, Cat. No. 23225). The tumor lysate samples were mixed with 5×SDS-PAGE loading buffer boiled for 5 min and brought to ice for 5 min. 30 μg of protein was loaded onto a NUPAGE 4-12% BT gel (Invitrogen, Cat. No. NPO336BOX) for separation. […] Membranes were imaged on the Odyssey imager (Li-COR) using fluorescence or cheminulinescence detection. […] Data are expressed as mean±SEM derived from at least three different mice and collected at 0, 2, 6, 12, 24, 48, 72 and 96 hr as indicated.

[6] = tested on: N-Myc; experiment: N-Myc levels in NCI-H1155 tumors (Compound 345); type: in vivo, mice; conditions: day 5, 1 mg/kg and 10 mg/kg, strongest effect at 10 mg/kg
Description: as §1, §2

T1 sequence (P15170 whole entry): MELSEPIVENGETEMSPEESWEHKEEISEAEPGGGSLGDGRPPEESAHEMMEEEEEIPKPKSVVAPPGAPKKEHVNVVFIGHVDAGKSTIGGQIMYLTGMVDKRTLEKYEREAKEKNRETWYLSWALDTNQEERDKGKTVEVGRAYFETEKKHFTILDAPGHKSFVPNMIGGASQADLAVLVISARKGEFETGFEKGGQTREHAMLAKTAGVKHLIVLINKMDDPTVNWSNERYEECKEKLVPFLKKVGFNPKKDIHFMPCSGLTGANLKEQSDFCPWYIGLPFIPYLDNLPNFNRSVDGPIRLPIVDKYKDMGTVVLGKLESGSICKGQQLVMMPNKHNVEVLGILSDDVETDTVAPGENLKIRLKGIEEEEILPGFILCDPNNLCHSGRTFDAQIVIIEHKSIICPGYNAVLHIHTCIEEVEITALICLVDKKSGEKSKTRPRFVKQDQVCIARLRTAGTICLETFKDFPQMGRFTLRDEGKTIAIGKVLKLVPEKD
T1 sequence (Q96SW2 whole entry): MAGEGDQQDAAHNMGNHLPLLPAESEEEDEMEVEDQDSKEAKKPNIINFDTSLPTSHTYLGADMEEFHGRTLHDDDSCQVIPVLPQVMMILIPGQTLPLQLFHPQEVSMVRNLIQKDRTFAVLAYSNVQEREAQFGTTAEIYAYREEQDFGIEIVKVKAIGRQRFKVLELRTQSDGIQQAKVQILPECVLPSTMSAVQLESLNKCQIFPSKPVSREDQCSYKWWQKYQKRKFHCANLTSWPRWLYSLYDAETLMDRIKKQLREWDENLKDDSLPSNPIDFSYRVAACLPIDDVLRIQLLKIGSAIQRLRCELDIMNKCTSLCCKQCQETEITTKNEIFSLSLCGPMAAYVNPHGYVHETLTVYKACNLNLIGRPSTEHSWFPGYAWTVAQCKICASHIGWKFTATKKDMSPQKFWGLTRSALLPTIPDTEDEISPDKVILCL
T1 sequence (Q16531 whole entry partner): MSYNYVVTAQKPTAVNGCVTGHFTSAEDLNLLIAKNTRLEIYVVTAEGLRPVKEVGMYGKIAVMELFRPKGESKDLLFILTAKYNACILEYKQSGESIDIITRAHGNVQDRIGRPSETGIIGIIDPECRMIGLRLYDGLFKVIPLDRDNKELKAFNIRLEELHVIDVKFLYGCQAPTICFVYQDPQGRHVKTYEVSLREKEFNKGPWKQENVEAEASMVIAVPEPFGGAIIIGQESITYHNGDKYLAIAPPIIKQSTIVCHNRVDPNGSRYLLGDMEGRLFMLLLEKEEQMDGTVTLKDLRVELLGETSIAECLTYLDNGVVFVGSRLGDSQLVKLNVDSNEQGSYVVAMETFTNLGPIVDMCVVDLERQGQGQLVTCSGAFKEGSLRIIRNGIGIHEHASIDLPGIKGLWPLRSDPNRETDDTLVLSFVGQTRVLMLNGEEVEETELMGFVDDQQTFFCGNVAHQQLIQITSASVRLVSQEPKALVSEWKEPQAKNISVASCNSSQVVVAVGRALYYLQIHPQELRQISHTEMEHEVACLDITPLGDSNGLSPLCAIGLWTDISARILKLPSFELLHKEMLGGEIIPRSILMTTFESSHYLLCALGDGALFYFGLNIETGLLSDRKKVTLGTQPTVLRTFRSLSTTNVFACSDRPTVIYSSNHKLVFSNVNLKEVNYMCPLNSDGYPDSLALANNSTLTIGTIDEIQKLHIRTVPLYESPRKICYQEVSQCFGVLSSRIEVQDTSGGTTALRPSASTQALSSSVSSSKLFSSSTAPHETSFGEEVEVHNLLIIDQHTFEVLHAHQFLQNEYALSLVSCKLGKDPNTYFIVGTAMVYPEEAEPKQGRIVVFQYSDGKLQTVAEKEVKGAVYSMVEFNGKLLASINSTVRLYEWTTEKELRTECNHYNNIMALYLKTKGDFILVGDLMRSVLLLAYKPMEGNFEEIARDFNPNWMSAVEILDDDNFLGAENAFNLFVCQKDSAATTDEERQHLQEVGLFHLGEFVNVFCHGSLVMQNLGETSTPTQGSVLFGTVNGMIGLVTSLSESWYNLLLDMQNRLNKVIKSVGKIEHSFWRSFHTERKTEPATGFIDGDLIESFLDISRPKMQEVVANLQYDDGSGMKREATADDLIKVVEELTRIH

Cc1ccc(NC(=O)NCc2ccc3c(c2)C(=O)N(C2CCC(=O)NC2=O)C3)cc1Cl (stereo not drawn) [Compound 8]
GSPT1 levels in tumors [1]: no or insignificant amounts of GSPT1 | induction of death (viability normalized to DMSO) [2]: did induce death

Cc1ccc(NC(=O)OCc2ccc3c(c2)C(=O)N(C2CCC(=O)NC2=O)C3)cc1Cl (stereo not drawn) [Compound 210]
sensitivity to treatment (viability) [3]: highly sensitive

O=C1CCC(N2Cc3ccc(COC(=O)Nc4cc(OC(F)(F)F)ccc4F)cc3C2=O)C(=O)N1 (stereo not drawn) [Compound 345, (2-(2,6-dioxopiperidin-3-yl)-3-oxoisoindolin-5-yl)methyl(2-fluoro-5-(trifluoromethoxy)phenyl)carbamate]
tumor progression free probability [4]: significantly extended the probability that an animal remained tumor-free | GSPT1 level relative to vehicle-only control [5]: substantially reduced | N-Myc level relative to vehicle-only control [6]: substantially reduced
